test system: Tetrahymena pyriformis; test: 48 h IGC50 (-log10 mol/L); higher = more toxic

| SMILES | 48 h IGC50 (-log10 mol/L) |
| --- | --- |
| CCCCOC(=O)CCC(=O)OCCCC | 3.51 |
| CC1(C)OCC(CO)O1 (configuration not stated) | 1.21 |
| O=c1cc(-c2ccccc2)oc2ccccc12 | 4.41 |
| N#CCC#N | 3.22 |
| CN1CCNCC1 | 2.04 |
| CCCCOC(C)=O | 2.51 |
| CCOc1ccc(N)c([N+](=O)[O-])c1 | 3.76 |
| CCCOC(C)=O | 1.76 |
| CCCC=O | 2.62 |
| O=[N+]([O-])c1cccc2ccccc12 | 4 |
| Cc1ccc(N)c([N+](=O)[O-])c1 | 3.37 |
| CCOc1ccc(C=O)cc1 | 3.07 |
| CCCCCCCCCCCO | 4.96 |
| O=[N+]([O-])c1c(Cl)cc(Cl)c([N+](=O)[O-])c1Cl | 5.19 |
| Nc1ccc(Cl)c(Cl)c1 | 4.37 |
| CCOC(=O)CC(=O)OCC | 2 |
| CC(=O)C(C)(C)C | 1.56 |
| O=C1CCCCC1 | 1.77 |
| O=[N+]([O-])c1ccc(Oc2ccccc2)cc1 | 4.58 |
| Cc1ccncc1 | 2.12 |
| Cc1cccc(O)c1 | 2.92 |
| Cc1c[nH]c2ccccc12 | 3.37 |

| SMILES | 48 h IGC50 (-log10 mol/L) |
| --- | --- |
| CCCCCOCCCCC | 4.09 |
| Nc1ccc(Br)cc1 | 4.01 |
| O=C(c1ccc(Br)cc1)c1cccnc1 | 3.82 |
| C/C=C/C=O | 4.06 |
| CC(O)CCl (configuration not stated) | 1.51 |
| Clc1cc(Cl)c(Cl)cc1Cl | 5 |
| CCCCCCCCCCCC(C)=O | 5.12 |
| CCCCCCC1CCC(=O)O1 (configuration not stated) | 3.49 |
| CCCCCO | 1.97 |
| Nc1ccc(F)cc1C(F)(F)F | 2.98 |
| Cc1ccccn1 | 1.99 |
| Cc1ccc(C)o1 | 2.52 |
| Oc1cccc(O)c1 | 2.35 |
| O=Cc1ccccc1[N+](=O)[O-] | 3.17 |
| OCC(Cl)(Cl)Cl | 2.54 |
| Oc1cccnc1Br | 3.15 |
| C=CC(=O)OC1CCCCC1 | 3.76 |
| COc1ccc(C(C)=O)c(O)c1 | 3.55 |
| O=Cc1cc(Br)cc(Br)c1O | 4.65 |
| Cc1cccc(Cl)c1C#N | 3.46 |
| Cc1cc([N+](=O)[O-])ccc1N | 3.49 |
| CC(=O)CCC=C(C)C | 2.55 |

| SMILES | 48 h IGC50 (-log10 mol/L) |
| --- | --- |
| C=CCO | 1.08 |
| c1ccc(-c2ccncc2)cc1 | 3.66 |
| CO | 0.334 |
| O/N=C/c1ccccc1O | 3.25 |
| C=CC(=O)OCCO | 3.69 |
| CC(=O)Nc1cccc(O)c1 | 2.84 |
| CCC(C)=O | 1.25 |
| C=C(C)C(=O)OCCO | 1.92 |
| N#Cc1ccccn1 | 2.17 |
| Cc1ccc(N)cc1N | 2.34 |
| COc1cc(OC)c(OC)cc1C=O | 2.9 |
| COC(C)=O | 1.41 |
| C=CCOC(=O)C(=C)C | 2.32 |
| c1ccccc1 | 2.88 |
| O=Cc1cc(Cl)ccc1O | 4.01 |
| c1cc(CCc2ccncc2)ccn1 | 2.97 |
| Oc1ccccc1O | 3.75 |
| CCCCCCCC(C)=O | 3.66 |
| CCC(C)(C)c1ccc(O)cc1 | 4.23 |
| CCNCc1ccccc1 | 3.22 |
| COC(=O)c1cc(Cl)ccc1Cl | 3.81 |
| C=CCCl | 2.06 |

| SMILES | 48 h IGC50 (-log10 mol/L) |
| --- | --- |
| CC(=O)c1ccc(Cl)cc1Cl | 3.62 |
| Oc1ccc(Cl)cc1Cc1cc(Cl)ccc1O | 6.09 |
| CCCCCCCCC#N | 3.62 |
| CC(=O)CC(=O)c1ccccc1 | 3.57 |
| O=[N+]([O-])c1ccc(F)cc1 | 3.1 |
| Cc1cccc(Cl)n1 | 2.52 |
| CCOC(=O)CCCCCCCCC(=O)OCC | 4.35 |
| N#CC(Br)Br | 5.4 |
| N#CCCl | 3.85 |
| CC(C)CC=O | 2.67 |
| CCCCCCCCN | 3.35 |
| CCCCCCCCO | 3.58 |
| ClC(Cl)(Cl)Cl | 2.98 |
| O=Cc1cc(Br)ccc1O | 4.11 |
| CC(C)=NO | 1.75 |
| CC(=O)c1cccn1C | 2.31 |
| C=CC(=O)OCC | 3.52 |
| CCCCCCCBr | 4.49 |
| CC(C)C(O)C(C)C | 2.29 |
| CCCCCCCCCC(C)=O | 4.54 |

test system: Pimephales promelas; test: 96 h LC50 (-log10 mol/L); higher = more toxic

| SMILES | 96 h LC50 (-log10 mol/L) |
| --- | --- |
| CCCCOC(=O)CCC(=O)OCCCC | 4.71 |
| CC1(C)OCC(CO)O1 (configuration not stated) | 0.898 |
| O=c1cc(-c2ccccc2)oc2ccccc12 | 4.8 |
| N#CCC#N | 5.07 |
| CN1CCNCC1 | 1.64 |
| CCCCOC(C)=O | 3.81 |
| CCOc1ccc(N)c([N+](=O)[O-])c1 | 3.85 |
| CCCOC(C)=O | 3.23 |
| CCCC=O | 3.65 |
| O=[N+]([O-])c1cccc2ccccc12 | 4.53 |
| Cc1ccc(N)c([N+](=O)[O-])c1 | 3.79 |
| CCOc1ccc(C=O)cc1 | 3.74 |
| CCCCCCCCCCCO | 5.22 |
| O=[N+]([O-])c1c(Cl)cc(Cl)c([N+](=O)[O-])c1Cl | 6.09 |
| Nc1ccc(Cl)c(Cl)c1 | 4.32 |
| CCOC(=O)CC(=O)OCC | 4.02 |
| CC(=O)C(C)(C)C | 3.06 |
| O=C1CCCCC1 | 2.19 |
| O=[N+]([O-])c1ccc(Oc2ccccc2)cc1 | 4.91 |
| Cc1ccncc1 | 2.36 |
| Cc1cccc(O)c1 | 3.29 |
| Cc1c[nH]c2ccccc12 | 4.17 |

| SMILES | 96 h LC50 (-log10 mol/L) |
| --- | --- |
| CCCCCOCCCCC | 4.71 |
| Nc1ccc(Br)cc1 | 3.56 |
| O=C(c1ccc(Br)cc1)c1cccnc1 | 4.11 |
| C/C=C/C=O | 4.92 |
| CC(O)CCl (configuration not stated) | 2.59 |
| Clc1cc(Cl)c(Cl)cc1Cl | 5.83 |
| CCCCCCCCCCCC(C)=O | 5.74 |
| CCCCCCC1CCC(=O)O1 (configuration not stated) | 3.98 |
| CCCCCO | 2.22 |
| Nc1ccc(F)cc1C(F)(F)F | 3.78 |
| Cc1ccccn1 | 2.02 |
| Cc1ccc(C)o1 | 3.13 |
| Oc1cccc(O)c1 | 3.3 |
| O=Cc1ccccc1[N+](=O)[O-] | 4.02 |
| OCC(Cl)(Cl)Cl | 2.82 |
| Oc1cccnc1Br | 2.57 |
| C=CC(=O)OC1CCCCC1 | 5.02 |
| COc1ccc(C(C)=O)c(O)c1 | 3.38 |
| O=Cc1cc(Br)cc(Br)c1O | 5.52 |
| Cc1cccc(Cl)c1C#N | 4 |
| Cc1cc([N+](=O)[O-])ccc1N | 3.24 |
| CC(=O)CCC=C(C)C | 3.17 |

| SMILES | 96 h LC50 (-log10 mol/L) |
| --- | --- |
| C=CCO | 5.26 |
| c1ccc(-c2ccncc2)cc1 | 3.98 |
| CO | 0.056 |
| O/N=C/c1ccccc1O | 4.63 |
| C=CC(=O)OCCO | 4.38 |
| CC(=O)Nc1cccc(O)c1 | 2.13 |
| CCC(C)=O | 1.35 |
| C=C(C)C(=O)OCCO | 2.76 |
| N#Cc1ccccn1 | 2.16 |
| Cc1ccc(N)cc1N | 1.94 |
| COc1cc(OC)c(OC)cc1C=O | 3.6 |
| COC(C)=O | 2.27 |
| C=CCOC(=O)C(=C)C | 5.11 |
| c1ccccc1 | 3.44 |
| O=Cc1cc(Cl)ccc1O | 5.31 |
| c1cc(CCc2ccncc2)ccn1 | 3.09 |
| Oc1ccccc1O | 4.29 |
| CCCCCCCC(C)=O | 3.97 |
| CCC(C)(C)c1ccc(O)cc1 | 4.8 |
| CCNCc1ccccc1 | 3.37 |
| COC(=O)c1cc(Cl)ccc1Cl | 4.17 |
| C=CCCl | 3.55 |

| SMILES | 96 h LC50 (-log10 mol/L) |
| --- | --- |
| CC(=O)c1ccc(Cl)cc1Cl | 4.21 |
| Oc1ccc(Cl)cc1Cc1cc(Cl)ccc1O | 5.94 |
| CCCCCCCCC#N | 4.3 |
| CC(=O)CC(=O)c1ccccc1 | 5.17 |
| O=[N+]([O-])c1ccc(F)cc1 | 3.7 |
| Cc1cccc(Cl)n1 | 2.74 |
| CCOC(=O)CCCCCCCCC(=O)OCC | 4.98 |
| N#CC(Br)Br | 5.56 |
| N#CCCl | 4.75 |
| CC(C)CC=O | 4.42 |
| CCCCCCCCN | 4.4 |
| CCCCCCCCO | 3.98 |
| ClC(Cl)(Cl)Cl | 3.57 |
| O=Cc1cc(Br)ccc1O | 5.19 |
| CC(C)=NO | 2.12 |
| CC(=O)c1cccn1C | 2.9 |
| C=CC(=O)OCC | 4.6 |
| CCCCCCCBr | 5.09 |
| CC(C)C(O)C(C)C | 2.85 |
| CCCCCCCCCC(C)=O | 5.05 |

Source: EPA's aquatic toxicity sets
